Consider four compounds from ChEMBL document CHEMBL1125619, “Effect of fluorine substitution on the adrenergic properties of 3-(tert-butylamino)-1-(3,4-dihydroxyphenoxy)-2-propanol” (J Med Chem, 1991).

The target of assay [1] is Beta-1 adrenergic receptor (Cavia porcellus, UniProt B0FL73). Briefly: Agonistic activity (beta-1 adrenergic receptor) for the percent maximal increase in contraction rate of isolated guinea pig atria. It is filed as functional.
For assay [2], the target named is Beta-1 adrenergic receptor (Rattus norvegicus, UniProt P18090).
Description: Compound was evaluated for the inhibition of binding of [3H]dihydroalprenolol from beta-1 adrenergic receptor of rat cerebral cortical membranes
For assay [3], the target named is Beta-2 adrenergic receptor (Cavia porcellus, UniProt Q8K4Z4). Briefly: Agonistic activity (beta2- adrenergic) for the percent maximal relaxation of isolated guinea pig trachea. It counts as functional, tissue-based.
In the next assay the target is Adrenergic receptor beta (Rattus norvegicus, UniProt P18090+P10608+P26255). Nature of the assay: Beta adrenergic receptor agonistic activity for the stimulation of accumulation of cyclic AMP in cultured C6 glioma cells. It is filed as functional, cell-based.

A word on the EC50: it is the concentration giving half of the maximal effect. Broadly, the Ki is a dissociation constant, usually derived from enzyme kinetics or from competition with a known ligand. A high value points to a looser hold on the target.

Beta-1 adrenergic receptor (Cavia porcellus, UniProt B0FL73), sequence (B0FL73 whole entry): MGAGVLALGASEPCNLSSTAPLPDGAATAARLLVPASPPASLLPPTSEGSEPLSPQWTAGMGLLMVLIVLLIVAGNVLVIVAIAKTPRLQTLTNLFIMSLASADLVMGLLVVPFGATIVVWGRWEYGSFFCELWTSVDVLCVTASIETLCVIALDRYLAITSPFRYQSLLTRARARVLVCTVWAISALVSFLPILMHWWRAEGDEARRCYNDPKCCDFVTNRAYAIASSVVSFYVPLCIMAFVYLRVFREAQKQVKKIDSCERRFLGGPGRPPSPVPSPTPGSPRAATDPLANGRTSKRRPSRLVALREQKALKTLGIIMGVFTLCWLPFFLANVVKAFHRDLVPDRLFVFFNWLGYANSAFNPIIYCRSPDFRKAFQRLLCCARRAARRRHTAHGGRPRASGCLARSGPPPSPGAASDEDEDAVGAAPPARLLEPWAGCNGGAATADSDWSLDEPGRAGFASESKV
Beta-1 adrenergic receptor (Rattus norvegicus, UniProt P18090), sequence (P18090 whole entry): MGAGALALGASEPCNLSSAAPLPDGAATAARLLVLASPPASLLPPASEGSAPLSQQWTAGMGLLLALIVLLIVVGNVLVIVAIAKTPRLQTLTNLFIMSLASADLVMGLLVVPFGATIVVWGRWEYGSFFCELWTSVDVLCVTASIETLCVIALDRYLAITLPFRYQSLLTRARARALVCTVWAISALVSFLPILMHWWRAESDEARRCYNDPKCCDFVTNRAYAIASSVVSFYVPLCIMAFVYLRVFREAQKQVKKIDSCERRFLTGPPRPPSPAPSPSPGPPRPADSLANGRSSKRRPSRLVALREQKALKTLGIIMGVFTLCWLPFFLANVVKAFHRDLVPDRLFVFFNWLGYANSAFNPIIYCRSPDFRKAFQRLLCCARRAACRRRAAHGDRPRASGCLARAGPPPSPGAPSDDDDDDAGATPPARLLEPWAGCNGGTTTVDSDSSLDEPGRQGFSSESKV
Beta-2 adrenergic receptor, sequence (Q8K4Z4 whole entry): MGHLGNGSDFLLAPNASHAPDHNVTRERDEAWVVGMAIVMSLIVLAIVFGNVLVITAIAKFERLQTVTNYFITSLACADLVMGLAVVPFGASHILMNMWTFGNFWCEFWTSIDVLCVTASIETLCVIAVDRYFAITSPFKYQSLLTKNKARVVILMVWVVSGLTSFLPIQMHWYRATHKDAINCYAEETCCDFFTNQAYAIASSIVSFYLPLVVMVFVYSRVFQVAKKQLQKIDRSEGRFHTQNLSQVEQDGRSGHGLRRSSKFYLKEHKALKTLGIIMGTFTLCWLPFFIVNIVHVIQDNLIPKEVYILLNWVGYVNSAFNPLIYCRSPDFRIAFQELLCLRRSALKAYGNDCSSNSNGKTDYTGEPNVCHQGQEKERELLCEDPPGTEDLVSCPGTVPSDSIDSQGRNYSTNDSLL

For the compound `CC(C)(C)NCC(O)COc1ccc(O)c(O)c1` (stereo not drawn), the results for the EC50 (in assay [1]; in assay [3]; at Adrenergic receptor beta) were 4.7 nM, 130 nM and 8.2 nM, respectively. Moreover, the Ki in assay [2] is 120 nM.

On to `CC(C)NCC(O)c1ccc(O)c(O)c1` (stereo not drawn) [ISOPROTERENOL], for which a half-maximal response in assay [3] (EC50) required 58 nM.

With `CC(C)(C)NCC(O)COc1cc(O)c(O)cc1F` (stereo not drawn), the values for the EC50 (in assay [1]; in assay [3]; at Adrenergic receptor beta) were 175 nM, greater than 10000 nM and >> 10000 nM, respectively. In assay [2], the Ki turned out to be 87000 nM.

Take `CC(C)(C)NCC(O)COc1ccc(O)c(O)c1F` (stereo not drawn): the concentration giving a half-maximal response (EC50) in assay [1] was 8.6 nM; in assay [3], 38 nM; on Adrenergic receptor beta, 9.2 nM. This compound also displayed a Ki in assay [2] of 60 nM.
